What was measured:
Sigma receptors = Sigma receptors (Homo sapiens, UniProt Q99720); assay: Sigma receptor affinity (pentazocine binding)
NMDA receptors = assay: NMDA receptor affinity (MK 801 binding)
Experimental: The affinity and selectivity of the compounds described above in greater detail for sigma receptors in comparison with NMDA receptors were determined following published methods (Kornhuber et al.: Eur. J. Pharmacol. 162, 483-490, 1989 and Neurosci. Lett. 163, 129-131, 1993).

Sigma receptors, sequence (Q99720 whole entry): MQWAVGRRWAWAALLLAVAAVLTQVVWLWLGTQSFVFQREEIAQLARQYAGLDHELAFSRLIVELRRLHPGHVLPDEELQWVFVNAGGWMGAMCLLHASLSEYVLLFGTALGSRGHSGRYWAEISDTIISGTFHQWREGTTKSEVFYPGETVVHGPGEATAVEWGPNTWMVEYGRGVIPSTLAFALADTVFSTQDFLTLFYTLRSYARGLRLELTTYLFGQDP

Structure (SMILES)	Ki (Sigma receptors) [µM]	Ki (NMDA receptors) [µM]
CC(C)(C)N1CCC(c2ccccc2)(c2ccccc2)CC1 [Budipine, budipine]	2	11.7
CC12CC3CC(C)(C1)CC(N)(C3)C2 [Memantine]	20	0.5
NC12CC3CC(CC(C3)C1)C2 [Amantadine]		10.5

Source: patent US5994369A, “Substituted piperidine or pyrrolidine compounds for treating sigma-receptor modulated disorders” (Byk Gulden Lomberg Chemische Fabrik GmbH, priority 1995, dated 1999)
